{
  "source": "patent US6552014B2",
  "about": "“Methods of inhibiting platelet activation with selective serotonin reuptake inhibitors” (HeartDrug Research, L.L.C., priority 1999, dated 2003)",
  "assay_in_all_cases": "Flow cytometry of platelet antigen expression, platelet rich plasma",
  "format_in_all_cases": "cell-based, human",
  "key": {"CPIa-IIa": {"tested_on": "CPIa-IIa", "conditions": "PRP", "description": "(§1) For ex vivo assessment of the SSRIs effect on a PAM, a level of a PAM can be assessed by flow cytometry by first obtaining a sample that comprises platelets and then contacting the sample with a platelet activation agonist, such as phorbol myristate acetate (PMA), ADP (adenosine diphosphate), thrombin, collagen, and/or TRAP (thrombin receptor activating peptide), under conditions suitable for activation of platelets in the sample. The sample is in contact with the agonist preferably for a period of time effective to maximally activate the platelets. […] NDMS at 31.1, 64.1 or 143 ng./ml). Then one contacts or stains the samples with a composition that comprises an anti-PAM antibody e.g., having a fluorescent label, preferably in an amount in excess of that required to bind the PAM expressed on the platelets, under conditions suitable for the formation of labeled complexes between the anti-PAM antibody and activated platelets. Then the formation of the complex in the sample is determined (detected or measured). […] The blood-ACD mixture was centrifuged at 1000 r.p.m. for 10 minutes at room temperature. […] The PRP was then centrifuged at 3000 r.p.m. for 10 minutes. […] All cells were then divided into ten plastic capped tubes. Nine portions of washed platelets were incubated with 5 μfluorescein isothiocyanate (FITC)-conjugated antibodies in the dark at +4 °C for 30 minutes, and one part remained unstained and served as a negative control. Surface antigen expression was measured with monoclonal murine anti-human antibodies: CD9 (p24); CD41a (IIb/IIIa, aIIIbb3); CD42b (Ib); CD61(IIIa) (DAKO Corporation, Carpinteria Calif.); CD49b (VLA-2, or a2b1); CD62p (P-selectin); CD31 (PECAM-1); […] The instrument was calibrated daily with fluorescence beads (CaliBRITE; Becton Dickinson) and measured FITC-conjugated fluorescence intensity. All parameters were obtained using four decade logarithmic amplification. The data was collected and stored in list mode, and then analyzed using CELLQuest® (version 1.2.2) software. Procedures are described in detail in (Gurbel, P. […] Serebruany, V. […] Gurbel, P. A. et al., Coron Artery Dis 9: 451-456 (1998) and Serebruany, V. L. et al., Arterioscl Thromb Vasc Biol 19: 153-158 (1999)). The data in table 1 was obtained using the methods described herein, and in particular, in Examples 1 and 2. The levels of various PAMs were assess from samples of human volunteers."}, "GP IIIa": {"tested_on": "GP IIIa", "conditions": "PRP", "description": "as §1"}, "GP IIb [1]": {"tested_on": "GP IIb", "conditions": "PRP", "description": "as §1"}, "GP Ib": {"tested_on": "GP Ib", "conditions": "PRP", "description": "as §1"}, "PECAM-1": {"tested_on": "PECAM-1", "conditions": "PRP", "description": "as §1"}, "Vitronectin receptor": {"tested_on": "Vitronectin receptor", "conditions": "PRP", "description": "For ex vivo assessment of the SSRIs effect on a PAM, a level of a PAM can be assessed by flow cytometry by first obtaining a sample that comprises platelets and then contacting the sample with a platelet activation agonist, such as phorbol myristate acetate (PMA), ADP (adenosine diphosphate), thrombin, collagen, and/or TRAP (thrombin receptor activating peptide), under conditions suitable for activation of platelets in the sample. The sample is in contact with the agonist preferably for a period of time effective to maximally activate the platelets. […] Then the formation of the complex in the sample is determined (detected or measured). […] The blood-ACD mixture was centrifuged at 1000 r.p.m. for 10 minutes at room temperature. […] The PRP was then centrifuged at 3000 r.p.m. for 10 minutes. […] All cells were then divided into ten plastic capped tubes. Nine portions of washed platelets were incubated with 5 μfluorescein isothiocyanate (FITC)-conjugated antibodies in the dark at +4 °C for 30 minutes, and one part remained unstained and served as a negative control. […] The instrument was calibrated daily with fluorescence beads (CaliBRITE; Becton Dickinson) and measured FITC-conjugated fluorescence intensity. All parameters were obtained using four decade logarithmic amplification. The data was collected and stored in list mode, and then analyzed using CELLQuest® (version 1.2.2) software. Procedures are described in detail in (Gurbel, P. […] Serebruany, V. […] The levels of various PAMs were assess from samples of human volunteers."}, "GP IIb [2]": {"tested_on": "GP IIb", "conditions": "PRP, desmethylsertraline 64.2 ng/ml"}, "[3]": {"conditions": "healthy volunteers, desmethylsertraline 31.1 ng/ml"}, "[4]": {"conditions": "healthy volunteers, desmethylsertraline 143 ng/ml"}, "[5]": {"conditions": "post-angioplasty patient on aspirin, desmethylsertraline 31.1 ng/ml"}, "[6]": {"conditions": "post-angioplasty patient on aspirin, desmethylsertraline 64.2 ng/ml"}, "[7]": {"conditions": "post-angioplasty patient on aspirin, desmethylsertraline 143 ng/ml"}, "[8]": {"conditions": "healthy volunteers, desmethylsertraline 64.2 ng/ml"}},
  "data": [
    {"molecule": "N[C@H]1CC[C@@H](c2ccc(Cl)c(Cl)c2)c2ccccc21", "note": "[Desmethyl sertraline, N-desmethylsertraline]", "values": [
      {"measurement": "CPIa-IIa (mean) log fluorescence intensity", "setting": "CPIa-IIa; [3]", "result": 41},
      {"measurement": "CPIa-IIa (peak) log fluorescence intensity", "setting": "CPIa-IIa; [3]", "result": 42},
      {"measurement": "CPIa-IIa (mean) log fluorescence intensity", "setting": "CPIa-IIa; [4]", "result": 43},
      {"measurement": "CPIa-IIa (peak) log fluorescence intensity", "setting": "CPIa-IIa; [4]", "result": 40},
      {"measurement": "CPIa-IIa (mean) log fluorescence intensity", "setting": "CPIa-IIa; [5]", "result": 62},
      {"measurement": "CPIa-IIa (peak) log fluorescence intensity", "setting": "CPIa-IIa; [5]", "result": 59},
      {"measurement": "CPIa-IIa (mean) log fluorescence intensity", "setting": "CPIa-IIa; [6]", "result": 62},
      {"measurement": "CPIa-IIa (peak) log fluorescence intensity", "setting": "CPIa-IIa; [6]", "result": 53},
      {"measurement": "CPIa-IIa (mean) log fluorescence intensity", "setting": "CPIa-IIa; [7]", "result": 40},
      {"measurement": "CPIa-IIa (peak) log fluorescence intensity", "setting": "CPIa-IIa; [7]", "result": 48},
      {"measurement": "GP IIIa (mean) log fluorescence intensity", "setting": "GP IIIa; [3]", "result": 981},
      {"measurement": "GP IIIa (peak) log fluorescence intensity", "setting": "GP IIIa; [3]", "result": 913},
      {"measurement": "GP IIIa (mean) log fluorescence intensity", "setting": "GP IIIa; [8]", "result": 1178},
      {"measurement": "GP IIIa (mean) log fluorescence intensity", "setting": "GP IIIa; [4]", "result": 1182},
      {"measurement": "GP IIIa (peak) log fluorescence intensity", "setting": "GP IIIa; [4]", "result": 1046},
      {"measurement": "GP IIIa (mean) log fluorescence intensity", "setting": "GP IIIa; [5]", "result": 1235},
      {"measurement": "GP IIIa (peak) log fluorescence intensity", "setting": "GP IIIa; [5]", "result": 1298},
      {"measurement": "GP IIIa (peak) log fluorescence intensity", "setting": "GP IIIa; [6]", "result": 1144},
      {"measurement": "GP IIIa (mean) log fluorescence intensity", "setting": "GP IIIa; [7]", "result": 1259},
      {"measurement": "GP IIIa (peak) log fluorescence intensity", "setting": "GP IIIa; [7]", "result": 1219},
      {"measurement": "GP IIb (mean) log fluorescence intensity", "setting": "GP IIb [1]; [3]", "result": 33},
      {"measurement": "GP IIb (peak) log fluorescence intensity", "setting": "GP IIb [1]; [3]", "result": 31},
      {"measurement": "GP IIb (peak) log fluorescence intensity", "setting": "GP IIb [1]; [8]", "result": 31},
      {"measurement": "GP IIb (mean) log fluorescence intensity", "setting": "GP IIb [1]; [4]", "result": 30},
      {"measurement": "GP IIb (peak) log fluorescence intensity", "setting": "GP IIb [1]; [4]", "result": 35},
      {"measurement": "GP IIb (mean) log fluorescence intensity", "setting": "GP IIb [1]; [5]", "result": 24},
      {"measurement": "GP IIb (peak) log fluorescence intensity", "setting": "GP IIb [1]; [5]", "result": 21},
      {"measurement": "GP IIb (mean) log fluorescence intensity", "setting": "GP IIb [1]; [6]", "result": 22},
      {"measurement": "GP IIb (mean) log fluorescence intensity", "setting": "GP IIb [1]; [7]", "result": 29},
      {"measurement": "GP IIb (peak) log fluorescence intensity", "setting": "GP IIb [1]; [7]", "result": 25},
      {"measurement": "GP Ib (mean) log fluorescence intensity", "setting": "GP Ib; [3]", "result": 146},
      {"measurement": "GP Ib (peak) log fluorescence intensity", "setting": "GP Ib; [3]", "result": 94},
      {"measurement": "GP Ib (mean) log fluorescence intensity", "setting": "GP Ib; [8]", "result": 299},
      {"measurement": "GP Ib (peak) log fluorescence intensity", "setting": "GP Ib; [8]", "result": 266},
      {"measurement": "GP Ib (mean) log fluorescence intensity", "setting": "GP Ib; [4]", "result": 309},
      {"measurement": "GP Ib (peak) log fluorescence intensity", "setting": "GP Ib; [4]", "result": 336},
      {"measurement": "GP Ib (mean) log fluorescence intensity", "setting": "GP Ib; [5]", "result": 167},
      {"measurement": "GP Ib (peak) log fluorescence intensity", "setting": "GP Ib; [5]", "result": 165},
      {"measurement": "GP Ib (mean) log fluorescence intensity", "setting": "GP Ib; [6]", "result": 198},
      {"measurement": "GP Ib (peak) log fluorescence intensity", "setting": "GP Ib; [6]", "result": 167},
      {"measurement": "GP Ib (mean) log fluorescence intensity", "setting": "GP Ib; [7]", "result": 222},
      {"measurement": "GP Ib (peak) log fluorescence intensity", "setting": "GP Ib; [7]", "result": 201},
      {"measurement": "PECAM-1 (mean) log fluorescence intensity", "setting": "PECAM-1; [3]", "result": 74},
      {"measurement": "PECAM-1 (peak) log fluorescence intensity", "setting": "PECAM-1; [3]", "result": 60},
      {"measurement": "PECAM-1 (mean) log fluorescence intensity", "setting": "PECAM-1; [8]", "result": 101},
      {"measurement": "PECAM-1 (mean) log fluorescence intensity", "setting": "PECAM-1; [4]", "result": 81},
      {"measurement": "PECAM-1 (peak) log fluorescence intensity", "setting": "PECAM-1; [4]", "result": 74},
      {"measurement": "PECAM-1 (mean) log fluorescence intensity", "setting": "PECAM-1; [5]", "result": 94},
      {"measurement": "PECAM-1 (peak) log fluorescence intensity", "setting": "PECAM-1; [5]", "result": 83},
      {"measurement": "PECAM-1 (mean) log fluorescence intensity", "setting": "PECAM-1; [7]", "result": 90},
      {"measurement": "PECAM-1 (peak) log fluorescence intensity", "setting": "PECAM-1; [7]", "result": 84},
      {"measurement": "Vitronectin (mean) log fluorescence intensity", "setting": "Vitronectin receptor; [3]", "result": 677},
      {"measurement": "Vitronectin (peak) log fluorescence intensity", "setting": "Vitronectin receptor; [3]", "result": 620},
      {"measurement": "Vitronectin (mean) log fluorescence intensity", "setting": "Vitronectin receptor; [8]", "result": 623},
      {"measurement": "Vitronectin (peak) log fluorescence intensity", "setting": "Vitronectin receptor; [8]", "result": 508},
      {"measurement": "Vitronectin (mean) log fluorescence intensity", "setting": "Vitronectin receptor; [4]", "result": 732},
      {"measurement": "Vitronectin (peak) log fluorescence intensity", "setting": "Vitronectin receptor; [4]", "result": 670},
      {"measurement": "Vitronectin (mean) log fluorescence intensity", "setting": "Vitronectin receptor; [5]", "result": 504},
      {"measurement": "Vitronectin (peak) log fluorescence intensity", "setting": "Vitronectin receptor; [5]", "result": 560},
      {"measurement": "Vitronectin (mean) log fluorescence intensity", "setting": "Vitronectin receptor; [6]", "result": 380},
      {"measurement": "Vitronectin (peak) log fluorescence intensity", "setting": "Vitronectin receptor; [6]", "result": 425},
      {"measurement": "Vitronectin (mean) log fluorescence intensity", "setting": "Vitronectin receptor; [7]", "result": 482},
      {"measurement": "Vitronectin (peak) log fluorescence intensity", "setting": "Vitronectin receptor; [7]", "result": 544},
      {"measurement": "GP IIb (mean) log fluorescence intensity", "setting": "GP IIb [2]; healthy volunteers", "result": 37},
      {"measurement": "GP IIb (peak) log fluorescence intensity", "setting": "GP IIb [2]; post-angioplasty patient on aspirin", "result": 20}
    ]}
  ]
}
